Reference: US20050154042A1, “N-alkyl pyrroles as HMG-CoA reductase inhibitors” (priority 2003, published 2005)

melting point | Structure (SMILES)
225 to 227 °C | COc1ccc([C@@H](C)NC(=O)c2c(-c3ccc(F)cc3)c(-c3ccc(F)cc3)c(CC[C@@H](O)C[C@@H](O)CC(=O)[O-])n2C(C)C)cc1.[Na+] [Example 154, (3R,5R)-7-{3,4-Bis-(4-fluoro-phenyl)-1-isopropyl-5-[(R)-1-(4-methoxy-phenyl)-ethylcarbamoyl]-1H-pyrrol-2-yl}-3,5-dihydroxy-heptanoic Acid Sodium Salt]
255 to 257 °C | COc1ccc([C@@H](C)NC(=O)c2c(-c3ccc(F)cc3)c(-c3ccc(F)cc3)c(/C=C/[C@@H](O)C[C@@H](O)CC(=O)[O-])n2C(C)C)cc1.[Na+] [Example 155, (3R,5S)-7-{3,4-Bis-(4-fluoro-phenyl)-1-isopropyl-5-[(R)-1-(4-methoxy-phenyl)-ethylcarbamoyl]-1H-pyrrol-2-yl)-3,5-dihydroxy-hept-6-enoic Acid Sodium Salt]
238 to 240 °C | CNC(=O)c1c(-c2ccccc2)c(-c2ccc(F)cc2)c(CC[C@@H](O)C[C@@H](O)CC(=O)[O-])n1C(C)C.[Na+] [Example 156, (3R,5R)-7-[3-(4-Fluoro-phenyl)-1-isopropyl-5-methylcarbamoyl-4-phenyl-1H-pyrrol-2-yl]-3,5-dihydroxy-heptanoic Acid Sodium Salt]
224 to 226 °C | CNC(=O)c1c(-c2ccccc2)c(-c2ccc(F)cc2)c(/C=C/[C@@H](O)C[C@@H](O)CC(=O)[O-])n1C(C)C.[Na+] [Example 157, (3R,5S)-7-[3-(4-Fluoro-phenyl)-1-isopropyl-5-methylcarbamoyl-4-phenyl-1H-pyrrol-2-yl]-3,5-dihydroxy-hept-6-enoic Acid Sodium Salt]
203 to 205 °C | CCNC(=O)c1c(-c2ccccc2)c(-c2ccc(F)cc2)c(CC[C@@H](O)C[C@@H](O)CC(=O)[O-])n1C(C)C.[Na+] [Example 158, (3R,5R)-7-[5-Ethylcarbamoyl-3-(4-fluoro-phenyl)-1-isopropyl-4-phenyl-1H-pyrrol-2-yl]-3,5-dihydroxy-heptanoic Acid Sodium Salt]
226 to 228 °C | CCNC(=O)c1c(-c2ccccc2)c(-c2ccc(F)cc2)c(/C=C/[C@@H](O)C[C@@H](O)CC(=O)[O-])n1C(C)C.[Na+] [Example 159, (3R,5S)-7-[5-Ethylcarbamoyl-3-(4-fluoro-phenyl)-1-isopropyl-4-phenyl-1H-pyrrol-2-yl]-3,5-dihydroxy-hept-6-enoic Acid Sodium Salt]
238 to 240 °C | CC(C)n1c(/C=C/[C@@H](O)C[C@@H](O)CC(=O)[O-])c(-c2ccc(F)cc2)c(-c2ccccc2)c1C(N)=O.[Na+] [Example 160, (3R,5S)-7-[5-Carbamoyl-3-(4-fluoro-phenyl)-1-isopropyl-4-phenyl-1H-pyrrol-2-yl]-3,5-dihydroxy-hept-6-enoic Acid Sodium Salt]
212 to 214 °C | CC(C)n1c(CC[C@@H](O)C[C@@H](O)CC(=O)[O-])c(-c2ccc(F)cc2)c(-c2ccccc2)c1C(N)=O.[Na+] [Example 161, (3R,5R)-7-[5-Carbamoyl-3-(4-fluoro-phenyl)-1-isopropyl-4-phenyl-1H-pyrrol-2-yl]-3,5-dihydroxy-heptanoic Acid Sodium Salt]
298 to 300 °C | CC(C)n1c(CC[C@@H](O)C[C@@H](O)CC(=O)[O-])c(-c2ccc(F)cc2)c(-c2ccc(F)cc2)c1C(=O)NCc1ccc(C(=O)[O-])cc1.[Na+].[Na+] [Example 162, (3R,5R)-4-({[5-(6-Carboxy-3,5-dihydroxy-hexyl)-3,4-bis-(4-fluoro-phenyl)-1-isopropyl-1H-pyrrole-2-carbonyl]-amino}-methyl)-benzoic Acid Disodium Salt]
240 to 245 °C | CC(C)n1c(CC[C@@H](O)C[C@@H](O)CC(=O)[O-])c(-c2ccc(F)cc2)c(-c2ccccc2)c1C(=O)NCc1cccc(C(=O)[O-])c1.[Na+].[Na+] [Example 163, (3R,5R)-3-({[5-(6-Carboxy-3,5-dihydroxy-hexyl)-4-(4-fluoro-phenyl)-1-isopropyl-3-phenyl-1H-pyrrole-2-carbonyl]-amino}-methyl)-benzoic Acid Disodium Salt]
